Results reported in US10238622B2, “Methods of treating and preventing/reducing the likelihood of Mesial temporal lobe epilepsy (TLE)” (priority 2009, dated 2019).

Tests used:
Li-pilocarpine SE rats [1] = assay: Lithium-pilocarpine status epilepticus induction, drugs given 1 hour after SE onset; type: in vivo, rat; settings: Diazepam 4 mg/kg i.m.; for effect on seizures (status epilepticus): given 1 hour after SE onset, Atropine sulfate 10 mg/kg s.c.
Protocol: (§1) All procedures were approved by the Institutional Animal Care and Use Committee at the University of New Mexico Health Sciences Center and were in accordance with National Institutes of Health Guide for the Care and Use of Laboratory Animals. Our protocol for the experiments here was a slight modification of a protocol published by Andre et al. (Andre et al., 2007). Twenty four hours prior to seizure induction, male Wistar rats, 2-3 months old, were administered s.c. 3 mmol/kg lithium chloride dissolved in isotonic NaCl saline Pilocarpine was then administered s.c. (25 mg/kg in isotonic NaCl). Once generalized limbic convulsions began, subcutaneous needle EEG electrodes were placed to confirm the development of status epilepticus (SE), defined as the occurrence of continuous high amplitude EEG spiking (Ormandy et al., 1989). These needles were fashioned from 25 gauge hypodermic needles (Becton Dickinson), with the hub cut off and bent at 60 degree angles so they will stay in place. One needle was inserted subcutaneously in the scalp over the parietal cortex and the other, which served as the reference electrode, over the scapula. […] Recording was then generally discontinued. Atropine sulfate (10 mg/kg s.c.) and Diazepam (4 mg/kg i.m.) were administered in order to improve survival, decrease anxiety and induce muscle relaxation. […] 12 hours after SE onset the EEG was recorded again for 5-10 min, and all rats had intermittent or organized, i.e. bursts of EEG spiking.

EC L5 neurons [2] = assay: Polysynaptic burst responses to single synaptic stimulation in acute brain slices 3 weeks post SE; type: cell-based, rat
Protocol: (§2) All experiments were performed on acute horizontal brain slices containing temporal neocortex, entorhinal cortex, subiculum and the ventral hippocampus. Control, or rats 2 or 3 weeks post-seizure, were anesthetized deeply with a mixture of ketamine and xylazine (85 and 15 mg/ml, respectively) and decapitated. The brains were removed rapidly and placed in an oxygenated (95% O2/5% CO2) ice-cold cutting solution containing (in mM): 3 KCl, 1.25 NaH2PO4, 6 MgSO4, 26 NaHCO3, 0.2 CaCl2, 10 glucose, 220 sucrose, and 0.43 ketamine. Slices (350 μm) were cut in ice-cold cutting solution with a vibratome (Dosaka DTK-1000) and transferred from there into Artificial Cerebro-Spinal Fluid (ACSF, in mM: 126 NaCl, 3 KCl, 1.25 NaH2PO4, 1 MgSO4, 26 NaHCO3, 2 CaCl2, and 10 glucose) equilibrated with 95% O2/5% CO2 at 34° C. temperature for recovery. After 1 hr ACSF was changed again, and the slices were held at room temperature until used for recording.
(§3) Individual slices were transferred to a recording chamber mounted on a fixed-stage microscope (Zeiss Axioskop, Jena, Germany) and superfused with warmed (34° C.), oxygenated ACSF at 2 ml/min. Intracellular recordings were made from EC layer 5 neurons with borosilicate glass sharp microelectrodes (80-150 MΩ) filled with either 1 M K2SO4, or 0.5 M potassium acetate/0.5 M KCl for lower electrode resistance, or 2 M CsSO4/0.1 M KCl for improved space clamp. […] Therefore all final recordings/data for bumetanide effects on GABAergic PSP reversal potential were obtained with microelectrodes filled with 1 M K2SO4 or 2 M CsSO4/0.1 M KCl.
(§4) Neurons were impaled in the medial entorhinal cortex just above the angular bundle, up to ¼ of cortex thickness, using a Nanostepper micropositioner (Scientific Precision Instruments, Oppenheim, Germany). Recordings were made using an Axoclamp 2B amplifier and digitized and recorded using an Axon Instruments Digidata 1322A (Molecular Devices, Union City, Calif.). Neurons with a RMP negative to −68 mV were tested with hyperpolarizing pulses to ˜−85 mV for the presence of Ih indicative of pyramidal neurons (Egorov et al., 2002; Egorov et al., 2003). […] Concentric bipolar stimulating electrodes (200 μm diameter, FHC Inc., ME, USA) were placed in layer 5 of EC, ˜150-250 μm from the recording electrode. Stimuli (70-100 μs, 100-800 nA) were controlled by a Master 8 programmable pulse generator connected to a stimulus isolation unit (A.M.P.I., Jerusalem, Israel). Full input-output relations for the EPSP and the IPSP were recorded, and stimulation intensities giving 70-90% of maximal response were used. Where indicated stimulation intensity was reduced to elicit 5-10% of maximal response.
For these determinations, a polysynaptic burst was defined as a post-synaptic response lasting more than 150 ms at half amplitude, elicited from −75 mV<RMP<−68 mV.

EC L5 neurons [3] = assay: GABAAergic PSP reversal potential, sharp microelectrode recording in acute brain slices 3 weeks post SE; type: cell-based, rat
Protocol: as §2, §3, §4

Li-pilocarpine SE rats [4] = assay: Seizures after acute bumetanide injection, video recordings, 12-17 weeks after SE (FIG. 12); type: in vivo, rat; settings: bumetanide 0.2 mg/kg body weight i.p., 12-17 weeks after Li-pilocarpine SE, n=5 rats
Protocol: All procedures were approved by the Institutional Animal Care and Use Committee at the University of New Mexico Health Sciences Center and were in accordance with National Institutes of Health Guide for the Care and Use of Laboratory Animals. Our protocol for the experiments here was a slight modification of a protocol published by Andre et al. (Andre et al., 2007). Twenty four hours prior to seizure induction, male Wistar rats, 2-3 months old, were administered s.c. 3 mmol/kg lithium chloride dissolved in isotonic NaCl saline Pilocarpine was then administered s.c. (25 mg/kg in isotonic NaCl). Once generalized limbic convulsions began, subcutaneous needle EEG electrodes were placed to confirm the development of status epilepticus (SE), defined as the occurrence of continuous high amplitude EEG spiking (Ormandy et al., 1989). These needles were fashioned from 25 gauge hypodermic needles (Becton Dickinson), with the hub cut off and bent at 60 degree angles so they will stay in place. […] 12 hours after SE onset the EEG was recorded again for 5-10 min, and all rats had intermittent or organized, i.e. bursts of EEG spiking.
Five Li-pilocarpine SE rats were subjected to a sequence of bumetanide or vehicle injections (5% ethanol in physiological saline, i.p., dates given on bottom line), and seizures occurring in the following 8 hours were analyzed by video recordings.

Li-pilocarpine SE rats [5] = assay: Spontaneous seizures with chronic bumetanide via the drinking water, 8 hour video recording (FIG. 18, 19); type: in vivo, rat
Protocol: as §1, with “discontinued.” for “discontinued. Atropine sulfate (10 mg/kg s.c.) and Diazepam (4 mg/kg i.m.) were administered in order to improve survival, decrease anxiety and induce muscle relaxation.”, “spiking. […]” for “spiking.”

pilocarpine SE rat = assay: Seizures provoked by open field exposure 6 weeks after end of chronic bumetanide treatment (FIG. 20); type: in vivo; settings: 27 weeks post SE, 6 weeks after end of bumetanide treatment, within 15 min, n=6 rats per group
Protocol: as §1, with “discontinued.” for “discontinued. Atropine sulfate (10 mg/kg s.c.) and Diazepam (4 mg/kg i.m.) were administered in order to improve survival, decrease anxiety and induce muscle relaxation.”, “spiking. […]” for “spiking.”

post SE rats = assay: Entering-a-dark box behavior in an open field (FIG. 21); type: in vivo, rat; settings: chronic bumetanide from day 16 post SE for 12 weeks, 8 rats; control rats 78%, untreated post SE rats 15%
Protocol: as §1, with “discontinued.” for “discontinued. Atropine sulfate (10 mg/kg s.c.) and Diazepam (4 mg/kg i.m.) were administered in order to improve survival, decrease anxiety and induce muscle relaxation.”, “spiking. […]” for “spiking.”

adult rat TLE model = settings: infusion of very high doses, first 2 weeks after SE; cited from earlier work

## CN1C(=O)CN=C(c2ccccc2)c2cc(Cl)ccc21 [Diazepam]
Li-pilocarpine SE rats [1]
  muscle relaxation: induced muscle relaxation within one hour
  effect on seizures (status epilepticus): did not stop seizures

## picrotoxin
EC L5 neurons [2]; picrotoxin 100 μM, 3 weeks post SE, n=8 neurons, 9.8±0.8 before drug
  number of spikes in polysynaptic burst responses in picrotoxin: 7.9±0.7 spikes per response
EC L5 neurons [2]; picrotoxin 100 μM, FIG. 11D
  burst duration in picrotoxin, result in words: did not reach statistical significance
EC L5 neurons [2]; picrotoxin 100 μM, averages of ten responses, n=8, p=0.094
  reduction of action potential amplitudes in the averaged burst responses: 10.5±3.4%
EC L5 neurons [2]; picrotoxin 100 μM, trend, n=8, p=0.094
  decrease of the duration of polysynaptic bursts: 10.5%

## CN1[C@@H]2CC[C@H]1CC(OC(=O)C(CO)c1ccccc1)C2.CN1[C@@H]2CC[C@H]1CC(OC(=O)C(CO)c1ccccc1)C2.O=S(=O)(O)O (stereo partly shown) [atropine, Atropine sulfate]
Li-pilocarpine SE rats [1]
  effect on seizures (status epilepticus): Nor did atropine stop seizures

## CCCCNc1cc(C(=O)O)cc(S(N)(=O)=O)c1Oc1ccccc1 [bumetanide]
EC L5 neurons [3]; 3 weeks after SE, CNQX 10 μM and APV 50 μM present, shifts from −29.7 mV
  E(PSP) of an EC L5 neuron after a 20 min exposure to bumetanide (FIG. 10A): −60.9 mV
EC L5 neurons [3]; 3 weeks after SE, in the presence of bumetanide
  reduction of driving force at −45 mV versus control rats: ~42%
EC L5 neurons [3]; 3 weeks after SE, ˜26 mV in control rats
  driving force for Cl− at −45 mV in the presence of bumetanide: ~15 mV
EC L5 neurons [3]; 3 weeks post SE, n=5
  absolute voltage average E(PSP) during washout of bumetanide: −34.2±3.4 mV
EC L5 neurons [3]; bumetanide 10 μM, EC L5 neurons 3 weeks post SE, RMP ˜−72 mV, more than +40 mV without drug
  average PSP reversal potential relative to RMP: +10 mV
EC L5 neurons [2]; 30 min washout, n=14
  neurons with a polysynaptic response after washout of bumetanide: 35.1%
EC L5 neurons [2]; bumetanide 10 μM, 3 weeks post SE
  decrease of response duration at half-maximal amplitude in bumetanide: 36±9 % of the control response
EC L5 neurons [2]; bumetanide 10 μM, cells from rats 3 weeks after pilocarpine insult, n=14, 64.8% before drug
  neurons with a polysynaptic response in bumetanide: 11.6%
EC L5 neurons [2]; recovered to, relative to control response
  response duration at half-maximal amplitude during washout of bumetanide: 75±11%
Li-pilocarpine SE rats [4]
  seizures occurring in the 8 hours following injection: suppression of seizures
Li-pilocarpine SE rats [5]; bumetanide via the drinking water, 0.65±0.13 mg/day, two other rats had reduced seizures
  rats in which bumetanide prevented seizures completely: 4 rats
Li-pilocarpine SE rats [5]; three and six weeks after end of 20 weeks chronic bumetanide via drinking water, n=6 rats per group
  seizure occurrence as % of seizures in time post SE-matched control SE rats: 15-22%
Pilocarpine SE rat
  seizures provoked by open field exposure as % of time post SE-matched control SE rats: less than 15%
Post SE rats
  trials in which rats entered the dark box: 67 % of trials
Adult rat TLE model
  suppression of SRS by bumetanide treatment: complete failure
